# How the values were obtained:
# [1] = molecular target: T1, JAK2 (Homo sapiens, UniProt O60674); assay: Kinobeads assay with antibody detection, JAK2; type: binding; details: mixed Molt4/Ramos lysate, read-out: JAK2 inhibition value (IC50)
# T1 construct: endogenous in cells; host or cells: mixed Molt4/Ramos cell lysate (1:2)
# Experimental: (§1) The compounds of the present invention as described in the previous examples were tested in a Kinobeads™ assay as described for ZAP-70 (WO-A 2007/137867). Briefly, test compounds (at various concentrations) and the affinity matrix with the immobilized aminopyrido-pyrimidine ligand 24 were added to cell lysate aliquots and allowed to bind to the proteins in the lysate sample. After the incubation time the beads with captured proteins were separated from the lysate. Bound proteins were then eluted and the presence of JAK1; JAK2, JAK3 and TYK2 was detected and quantified using specific antibodies in a dot blot procedure and the Odyssey infrared detection system. Dose response curves for individual kinases were generated and IC50 values calculated. Kinobeads™ assays for ZAP-70 (WO-A 2007/137867) and for kinase selectivity profiling (WO-A 2006/134056) have been previously described.
# (§2) 5×DP buffer: 250 mM Tris-HCl pH 7.4, 25% Glycerol, 7.5 mM MgCl2, 750 mM NaCl, 5 mM Na3VO4; filter the 5×DP buffer through a 0.22 μm filter and store in aliquot at −80° C. The 5×DP buffer is diluted with H2O to 1×DP buffer containing 1 mM DTT and 25 mM NaF.
# (§3) Stock solutions of test compounds were prepared in DMSO. In a 96 well plate 30 μL solution of diluted test compounds at 5 mM in DMSO were prepared. Starting with this solution a 1:3 dilution series (9 steps) was prepared. For control experiments (no test compound) a buffer containing 2% DMSO was used.
# (§4) Molt4 cells (ATCC catalogue number CRL-1582) and Ramos cells (ATCC catalogue number CRL-1596) were grown in 1 L Spinner flasks (Integra Biosciences, #182101) in suspension in RPMI 1640 medium (Invitrogen, #21875-034) supplemented with 10% Fetal Bovine Serum (Invitrogen) at a density between 0.15×10^6 and 1.2×10^6 cells/mL. Cells were harvested by centrifugation, washed once with 1×PBS buffer (Invitrogen, #14190-094) and cell pellets were frozen in liquid nitrogen and subsequently stored at −80° C. Cells were homogenized in a Potter S homogenizer in lysis buffer: 50 mM Tris-HCl, 0.8% NP40, 5% glycerol, 150 mM NaCl, 1.5 mM MgCl2, 25 mM NaF, 1 mM sodium vanadate, 1 mM DTT, pH 7.5. One complete EDTA-free tablet (protease inhibitor cocktail, Roche Diagnostics, 1873580) per 25 mL buffer was added. The material was dounced 10 times using a mechanized POTTER S, transferred to 50 mL falcon tubes, incubated for 30 minutes on ice and spun down for 10 minutes at 20,000 g at 4° C. (10,000 rpm in Sorvall SLA600, precooled). The supernatant was transferred to an ultracentrifuge (UZ)-polycarbonate tube (Beckmann, 355654) and spun for 1 hour at 100.000 g at 4° C. (33.500 rpm in Ti50.2, precooled). The supernatant was transferred again to a fresh 50 mL falcon tube, the protein concentration was determined by a Bradford assay (BioRad) and samples containing 50 mg of protein per aliquot were prepared. The samples were immediately used for experiments or frozen in liquid nitrogen and stored frozen at −80° C.
# (§5) Cell lysate (approximately 50 mg protein per plate) was thawed in a water bath at room temperature and then stored on ice. To the thawed cell lysate 1×DP 0.8% NP40 buffer containing protease inhibitors (1 tablet for 25 mL buffer; EDTA-free protease inhibitor cocktail; Roche. Diagnostics 1873580) was added in order to reach a final protein concentration of 10 mg/mL total protein. The diluted cell lysate was stored on ice. Mixed Molt4Ramos lysate was prepared by combining one volume of Molt4 lysate and two volumes of Ramos lysate (ratio 1:2).
# (§6) Plates were sealed and incubated for 3 hours in a cold room on a plate shaker (Heidolph tiramax 1000) at 750 rpm. Afterwards the plate was washed 3 times with 230 μL washing buffer (1×DP 0.4% NP40). The filter plate was placed on top of a collection plate (Greiner bio-one, PP-microplate 96 well V-shape, 65120) and the beads were then eluted with 20 μL of sample buffer (100 mM Tris, pH 7.4, 4% SDS, 0.00025% bromophenol blue, 20% glycerol, 50 mM DTT). […]
# [2] = system: STAT5 phosphorylation in IL-2 stimulated YT cells; assay: pSTAT5 cell assay (IL-2 stimulated YT cells, AlphaScreen); type: cell-based; details: IL-2 stimulated human YT cells, 1 h compound incubation
# From the text: STAT5 phosphorylation represents one of the proximal events in the signalling cascade downstream of JAK3 activation. Therefore STAT5 phosphorylation is an appropriate readout to assess the mechanistic effect of JAK3 inhibition. Stimulation of human YT cells, an NK-like cell line, with interleukin-2 (IL-2) results in phosphorylation of STATS at tyrosine residue 694 (Tyr694) that can be quantitatively measured by immunodetection with specific antibodies and an appropriate detection method, in this case AlphaScreen assay technology.
# Human YT cells were grown in RPMI medium (Lonza, BE12-167) with 2 mM L-Glutamine (Invitrogen, 25030-024) and 10% heat-inactivated FBS (Invitrogen, 10106-169) and kept in a humidified incubator (37° C., 5% CO2). Cells were harvested by centrifugation, washed once with HBSS (Invitrogen, 14180-046), resuspended in HESS at 1.5×10^6 cells/ml and 0.9×10^4 cells were seeded in 6 μl per well in a 96 well White plate (PerkinElmer, 6005569).
# Test compounds were dissolved in DMSO and a 1:3 dilution series (9 steps) was prepared. To generate a dose response curve, […] of fourfold concentrated compound in 4% DMSO/HBSS were added to each cell sample in the 96 well plate resulting in a final DMSO concentration of 1% DMSO. Cells were incubated for one hour in a humidified incubator (37° C., 5% CO2). To each well 3 μl of a fourfold concentrated IL-2 solution (Recombinant human IL-2, Peprotech 200-02; 120 nM solution in HBSS) was added and incubated for 30 minutes at room temperature. Cells were lysed by adding 3 μl of 5× lysis buffer (SureFire lysis buffer; Perkin Elmer, TGRS5S10K) and incubated for 10 minutes at room temperature with gentle shaking.
# For signal detection by AlphaScreen® technology the SureFire phospho-STAT5 (Tyr694Tyr699) kit was used according to instructions provided by the manufacturer (Perkin Elmer, TGRS5S10K). Acceptor beads were added as recommended by the manufacturer (Reactivation buffer/Activation buffer/Acceptor beads at a ratio of 40:10:1) and incubated at room temperature for 1.5 hours with gentle shaking. Then donor beads were added as recommended (Dilution buffer/Donor beads at a ratio of 20:1) and incubated at room temperature for 1.5 hours with gentle shaking. Plates were read on an Envision instrument (Perkin Elmer) with the AlphaScreen protocol. Data were analysed in BioAssay using the nonlinear regression for a sigmoidal dose-response with a variable slope.
# [3] = molecular target: T2, Tyk2 (Homo sapiens, UniProt P29597); assay: Kinobeads assay with antibody detection, TYK2; type: binding; details: mixed Molt4/Ramos lysate, read-out: Tyk2 inhibition value (IC50)
# T2 construct: endogenous in cells; host or cells: mixed Molt4/Ramos cell lysate (1:2)
# T2 sequence (P29597 whole entry): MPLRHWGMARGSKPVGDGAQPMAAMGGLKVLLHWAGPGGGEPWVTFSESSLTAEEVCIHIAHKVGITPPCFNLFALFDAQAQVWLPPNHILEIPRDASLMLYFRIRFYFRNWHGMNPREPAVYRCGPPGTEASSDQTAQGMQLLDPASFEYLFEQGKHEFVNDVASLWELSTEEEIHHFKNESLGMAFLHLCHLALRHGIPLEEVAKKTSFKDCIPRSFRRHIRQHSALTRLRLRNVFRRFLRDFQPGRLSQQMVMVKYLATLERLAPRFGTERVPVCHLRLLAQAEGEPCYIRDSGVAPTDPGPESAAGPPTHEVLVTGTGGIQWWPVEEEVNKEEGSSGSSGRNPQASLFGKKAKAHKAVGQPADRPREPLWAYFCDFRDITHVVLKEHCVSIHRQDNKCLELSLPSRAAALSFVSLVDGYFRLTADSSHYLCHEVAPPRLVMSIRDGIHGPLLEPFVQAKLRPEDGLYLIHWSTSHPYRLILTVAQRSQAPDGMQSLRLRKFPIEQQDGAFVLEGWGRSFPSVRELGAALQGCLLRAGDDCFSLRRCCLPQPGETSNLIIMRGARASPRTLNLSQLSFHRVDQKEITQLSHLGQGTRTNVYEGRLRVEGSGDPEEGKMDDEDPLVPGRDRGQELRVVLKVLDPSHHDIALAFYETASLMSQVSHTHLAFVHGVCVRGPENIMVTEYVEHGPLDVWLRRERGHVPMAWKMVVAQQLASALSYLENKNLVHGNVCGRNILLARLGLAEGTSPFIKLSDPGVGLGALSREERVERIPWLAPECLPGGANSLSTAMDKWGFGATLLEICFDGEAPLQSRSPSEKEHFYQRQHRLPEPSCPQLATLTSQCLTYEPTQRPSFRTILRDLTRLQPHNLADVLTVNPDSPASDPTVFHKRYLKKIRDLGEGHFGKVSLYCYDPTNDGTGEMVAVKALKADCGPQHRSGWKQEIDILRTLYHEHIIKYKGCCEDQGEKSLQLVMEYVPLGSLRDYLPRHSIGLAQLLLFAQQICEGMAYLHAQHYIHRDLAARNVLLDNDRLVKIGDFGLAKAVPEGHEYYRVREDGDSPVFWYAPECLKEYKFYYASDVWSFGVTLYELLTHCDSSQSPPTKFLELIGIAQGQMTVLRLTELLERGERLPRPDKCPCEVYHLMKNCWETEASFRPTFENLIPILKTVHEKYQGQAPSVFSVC
# Experimental: as §1, §2, §3, §4, §5, §6
# T1 sequence (O60674 whole entry): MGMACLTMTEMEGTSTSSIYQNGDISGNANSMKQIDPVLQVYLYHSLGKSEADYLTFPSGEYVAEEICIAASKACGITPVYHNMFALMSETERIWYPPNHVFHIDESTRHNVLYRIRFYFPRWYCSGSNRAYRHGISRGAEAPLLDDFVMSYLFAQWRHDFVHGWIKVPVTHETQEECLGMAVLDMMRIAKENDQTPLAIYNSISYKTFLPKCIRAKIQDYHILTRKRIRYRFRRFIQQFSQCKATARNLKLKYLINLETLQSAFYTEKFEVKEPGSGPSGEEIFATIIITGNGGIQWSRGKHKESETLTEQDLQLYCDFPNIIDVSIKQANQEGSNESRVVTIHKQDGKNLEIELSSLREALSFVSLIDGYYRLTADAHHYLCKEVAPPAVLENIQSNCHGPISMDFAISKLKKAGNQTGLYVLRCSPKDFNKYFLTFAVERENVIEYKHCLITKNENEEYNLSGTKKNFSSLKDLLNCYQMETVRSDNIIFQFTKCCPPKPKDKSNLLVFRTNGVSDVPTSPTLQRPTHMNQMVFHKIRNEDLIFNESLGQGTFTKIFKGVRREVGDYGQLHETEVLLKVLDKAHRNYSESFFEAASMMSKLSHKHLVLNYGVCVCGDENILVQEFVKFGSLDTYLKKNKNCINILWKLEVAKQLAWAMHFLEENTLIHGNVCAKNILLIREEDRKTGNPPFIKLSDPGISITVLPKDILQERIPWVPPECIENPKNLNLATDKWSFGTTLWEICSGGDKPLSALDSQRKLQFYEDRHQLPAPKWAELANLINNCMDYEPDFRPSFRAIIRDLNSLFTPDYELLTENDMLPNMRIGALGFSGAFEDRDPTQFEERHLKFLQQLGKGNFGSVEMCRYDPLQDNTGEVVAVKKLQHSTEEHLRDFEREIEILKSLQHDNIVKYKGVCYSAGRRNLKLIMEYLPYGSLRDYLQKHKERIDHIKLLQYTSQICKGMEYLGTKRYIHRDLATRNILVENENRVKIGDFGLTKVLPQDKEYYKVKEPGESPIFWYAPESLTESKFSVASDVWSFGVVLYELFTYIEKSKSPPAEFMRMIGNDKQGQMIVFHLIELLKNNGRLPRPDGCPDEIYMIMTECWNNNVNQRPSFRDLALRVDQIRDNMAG
SMILES,IC50 [1] [µM],IC50 [2] [µM],IC50 [3] [µM]
"C=CS(=O)(=O)Nc1cccc(Cn2ncc3cnc(Nc4cnn(C)c4)nc32)c1 [Example 4, N-(3-((6-((1-Methyl-1H-pyrazol-4-yl)amino)-1H-pyrazolo[3,4-d]pyrimidin-1-yl)methyl)phenyl)ethenesulfonamide]",> 10,0.074,6.13
"C=C(C)C(=O)Nc1cccc(Cn2ncc3cnc(Nc4cnn(C)c4)nc32)c1 [Example 5, N-(3-((6-((1-Methyl-1H-pyrazol-4-yl)amino)-1H-pyrazolo[3,4-d]pyrimidin-1-yl)methyl)phenyl)methacrylamide]",> 10,2,> 10
"C=CS(=O)(=O)Nc1cccc(Cn2ccc3cnc(Nc4cnn(C)c4)nc32)c1 [Example 7, N-(3-((2-((1-Methyl-1H-pyrazol-4-yl)amino)-7H-pyrrolo[2,3-d]pyrimidin-7-yl)methyl)phenyl)ethenesulfonamide]",> 10,0.079,0.901
"CC(=O)Nc1cccc(Cn2ncc3cnc(Nc4cnn(C)c4)nc32)c1 [compound 2, N-(3-((6-((1-methyl-1H-pyrazol-4-yl)amino)-1H-pyrazolo[3,4-d]pyrimidin-1-yl)methyl)phenyl)acetamide, reference compound]",> 10,–,> 10

# Further lines, results first:
IC50 [1] [µM],IC50 [2] [µM],IC50 [3] [µM],SMILES
> 10,0.031,> 10,"C=CC(=O)Nc1cccc(Cn2ncc3cnc(Nc4cnn(C)c4)nc32)c1 [Example 1, N-(3-((6-((1-Methyl-1H-pyrazol-4-yl)amino)-1H-pyrazolo[3,4-d]pyrimidin-1-yl)methyl)phenyl)acrylamide]"
> 10,0.378,> 10,"C=CC(=O)Nc1cc(Cn2ncc3cnc(Nc4cnn(C)c4)nc32)ccc1F [Example 2, N-(2-Fluoro-5-((6-((1-methyl-1H-pyrazol-4-yl)amino)-1H-pyrazolo[3,4-c]pyrimidin-1-yl)methyl)phenyl)acrylamide]"
> 10,0.033,6.96,"C#CC(=O)Nc1cccc(Cn2ncc3cnc(Nc4cnn(C)c4)nc32)c1 [Example 3, N-(3-((6-((1-Methyl-1H-pyrazol-4-yl)amino)-1H-pyrazolo[3,4-d]pyrimidin-1-yl)methyl)phenyl)propiolamide]"
